What was measured:
Assay type in all cases: cell-based, human
[1] = system: LC3-II in GFRα1-overexpressing MG-63 cells; assay: Immunoblot of LC3-II in GFRα1-overexpressing cells; conditions: 3-MA (10 μM) or Baf (100 nM)
Protocol: (§1) FIG. 3. GFRα1-induced autophagy enhances the chemoresistance of osteosarcoma cells induced by cisplatin. (a) Control and GFRα1-deficient MG-63 cells were transiently transfected with a mRFP-GFP tandem fluorescent-tagged LC3 (mRFP-GFP-LC3) vector and then treated with cisplatin (20μM) for 24 hr. Left, representative images of RFP-LC3 and GFP-LC3 puncta. Scale bar, 20 μm. Right, quantitative analysis of the number of yellow puncta and the number of RFP-LC3 puncta in the combined images. The values are represented as a mean±s.d.m. (n=3). ** denotes p<0.05 by t-test. (b) Control and GFRα1-deficient MG-63 cells were treated with cisplatin (20 μM) for 24 hr and then stained with acridine orange. […] Bottom, quantitative analysis of the number of AVOs. […] (c) Control and GFRα1-deficient MG-63 cells were treated with cisplatin (20 μM) for 24 hr and then analyzed by TEM. Top, representative images of autophagic vacuoles (yellow arrows) detected after cisplatin treatment in control MG-63 cells. […] Bottom, quantitative analysis of the number of autophagic vacuoles. […] (e) Quantitative analysis of the number of yellow puncta and the number of RFP-LC3 puncta in control and GFRα1-overexpressing MG-63 cells. […] Bottom, quantitative analysis of the number of AVOs. […] (h) Control and GFRα1-overexpressing MG-63 cells were treated with cisplatin (20 μM) for 24 hr and then analyzed by TEM. […]

MG-63 cells = assay: Acridine orange staining of acidic vesicular organelles (AVOs); conditions: control MG-63 cells; cisplatin 20 μM, 24 hr
Protocol: as §1

[2] = system: GFRα1 expression in MG-63 and U-2 OS cells; assay: Immunoblot of GFRα1 expression after chemotherapeutic agents; conditions: doxorubicin 5 μM, cisplatin 20 μM, methotrexate 1 mM, 24 hr
Protocol: FIG. 1. Cisplatin induces GFRα1 expression in osteosarcoma cells. (a-c) Immunoblot analysis of osteosarcoma cell lysates with antibodies specific for GFRα1 and β-actin. (a) MG-63 and U-2 OS cells were treated with doxorubicin (5 μM), cisplatin (20 μM), or methotrexate (1 mM) for 24 hr. Immunoblot analysis of GFRα1 (left) and quantification of GFRα1 expression (right) after treatment of chemotherapeutic agents. (b) MG-63 and U-2 OS cells were treated with different concentrations of cisplatin for 24 hr. (c) MG-63 and U-2 OS cells were treated with cisplatin (20 μM) and collected at the indicated time. (d and e) Quantitative real-time PCR of GFRα1 mRNA expression after cisplatin treatment. Representative images (top) and quantitative analysis (bottom) of GFRα1 mRNA expression. The values are presented as a mean±s.d.m (n=3). ** denotes p<0.05 by t-test. (d) MG-63 and U-2 OS cells were treated with different concentrations of cisplatin for 24 hr. (e) MG-63 and U-2 OS cells were treated with cisplatin (20 μM) and collected at the indicated time.
Immunoblotting. Cells were washed with PBS and lysed in RIPA Buffer (Pierce, Rockford, Ill.). The protein content was determined using a dye-binding microassay (Bio-Rad, Hercules, Calif.), and 10-50 μg protein per lane was electrophoresed on 4-12% SDS polyacrylamide gels. Proteins were blotted onto Hybond ECL membranes (Amersham Pharmacia Biotech, Piscataway, N.J.). Two protein ladders were used for molecular weight determination (GenDEPOT, Barker, Tex.). The blotted proteins were detected using an enhanced chemiluminescence detection system (iNtRON, Seoul, Korea). Data were quantified and analyzed with Image-J software.

Compound	level of LC3-II expression [1]	AVO-positive cells (MG-63 cells)	level of GFRα1 expression [2]
Cn1cnc(N)c2ncnc1-2 [3-MA, 3-methyladenine]	reduced	–	–
N.N.[Cl][Pt][Cl] [cisplatin, Cis-Diamineplatinum(II) dichloride]	–	significantly increased	significantly increased

— US20180171411A1, “GFRalpha1 AS A BIOMARKER FOR CISPLATIN-INDUCED CHEMORESISTANCE AND METASTASIS” (THE BOARD OF REGENTS OF THE UNIVERSITY OF TEXAS SYSTEM, priority 2015, published 2018)
